The values that follow come from paper PMC2846521 (Journal of chemical information and modeling, 2009).

The term Kd denotes the free concentration of one partner at which half of the binding sites on the other are occupied at equilibrium, for simple one-to-one binding.

The first assay concerns the target T1, Gβ1γ2 (Homo sapiens, UniProt P62873). Kind of assay: Competition ELISA with the high-affinity SIGK peptide. The following applies: read-out: Median Inhibitory Concentration IC50 (binding inhibitors of SIGK); competition with SIGK peptide in ELISA.
With `Cc1cc(O)c(-c2cc(O)c(C)cc2O)cc1O` [compound 2805], the IC50 turned out to be 7.1 µM.

In the case of `C[N+]1(CC[N+]2(C)CCCC2c2cccnc2)CCCC1c1cccnc1` (centres unmarked) [compound 3284], the IC50 was found to be 262 µM.

For the compound `O=C1c2ccccc2C(=O)c2c1ccc(C(=O)O)c2-c1ccc2ccccc2c1` [compound 9608], the IC50 came out at 16.5 µM.

Take `Cc1ccc(S(=O)(=O)OC2C(C3COC(C)(C)O3)OC3OC(C)(C)OC32)cc1` (centres unmarked) [compound 14163]: the IC50 came out at 5.9 µM.

With `CN(C)CS/C(N)=N/[C@H](O)C(Cl)(Cl)Cl` [compound 14555], the IC50 worked out at 26 µM.

Regarding `C[N+]1(CCN[N+]2(C)CCCCC2)CCc2ccccc2C1` (centres unmarked) [compound 17770], the IC50 amounted to 59.1 µM.

As for `CCC(=O)OCN1C(=O)C=CC1=O` [compound 19630], the IC50 came out at 53.6 µM.

For the compound `O=C(O)[C@@H]1[C@H](C(=O)O)[C@]2(Cl)C(Cl)=C(Cl)[C@@]1(Cl)C2(Cl)Cl` [compound 22225], the IC50 was 11.4 µM.

Take `O=C1c2ccccc2C(=O)c2c(Nc3cc4c5c(ccc6c7ccc8c9c(cc(Nc%10cccc%11c%10C(=O)c%10ccccc%10C%11=O)c(c3c56)c97)-c3ccccc3C8=O)C(=O)c3ccccc3-4)cccc21` [compound 23128]: the IC50 is 27 µM.

As to `CN(CCc1ccccn1)c1ccc2c(c1)C(=O)c1ccccc1-2` [compound 24048], the IC50 is 292 µM.

As to `Nc1ccc(S(=O)(=O)c2ccc(NCN3C(=O)NC(=O)C(=O)C3=O)cc2)cc1` [compound 34238], the IC50 came to 42 µM.

On to `CN1C[C@H](c2ccccc2)C(O)([C@]2(c3ccccc3)CN(C)C[C@@H](c3ccccc3)C2=O)[C@H](c2ccccc2)C1` (some centres unmarked) [compound 39207], for which the IC50 came out at 10.7 µM.

For `CC[N+](C)(CC)CCN1C(=O)c2ccccc2S1(=O)=O` [compound 45126], the IC50 amounted to 69.7 µM.

Consider `O=C1C(Cl)=C(Nc2ccc(S(=O)(=O)Nc3ccccn3)cc2)C(=O)c2ccccc21` [compound 45382], for which the IC50 was 35.4 µM.

Regarding `O=C1c2cc([N+](=O)[O-])ccc2-c2ccc3c4ccc5c6c(ccc(c7ccc1c2c73)c64)C(=O)c1cc([N+](=O)[O-])ccc1-5` [compound 51535], the IC50 was 2.4 µM.

For the compound `COc1ccc(CC[N@+]2(C)COc3cc4oc(=O)cc(C)c4cc3C2)cc1OC` [compound 59275], the IC50 was determined as 197 µM.

As to `CN(C)C1C(=O)C(C(N)=O)=C(O)C2(O)C(=O)C3=C(O)c4c(O)cccc4C(C)(O)C3CC12` (centres unmarked) [compound 69343], the IC50 was found to be 16.8 µM.

With `Nc1cc(S(N)(=O)=O)ccc1SSc1ccc(S(N)(=O)=O)cc1N` [compound 83217], the IC50 worked out at 56.9 µM.

As to `NCCNC(=S)S` [compound 83224], the IC50 was 24.9 µM.

Take `C[C@]12CC[C@H]3[C@@H](CCC4=CC(=O)CC[C@@]43C)[C@@H]1CC[C@@H]2C(=O)COS(=O)(=O)c1ccc(Br)cc1` [compound 88915]: the IC50 was 47.7 µM.

Consider `C[N+]1(CCC[N+]2(C)C[C@H]3[C@H](C2)[C@H]2C=C[C@@H]3CC2)CCOCC1` (some centres unmarked) [compound 90831], for which the IC50 is 92.9 µM.

Take `C[C@H]1CCCC2(CC[N+](C)(CCC[N+](C)(C)C)CC2)C1` (some centres unmarked) [compound 95676]: the IC50 was found to be 182 µM.

Turning to `Nc1c(S(=O)(=O)O)cc(Nc2cccc(S(N)(=O)=O)c2)c2c1C(=O)c1ccccc1C2=O` [compound 117079], the IC50 was 56 µM.

As to `N=C1C(O)C2(I)c3ccccc3N3C(=N)C(O)C4c5ccccc5N1C4C32` (centres unmarked) [compound 118176], the IC50 came to 8.1 µM.

Regarding `O=C(O)c1c(Br)c(Br)c(Br)c(Br)c1C1c2ccc(O)cc2Oc2cc(O)ccc21` [compound 119889], the IC50 was found to be 4.3 µM.

Take `O=C(O)C1CCCCC1c1c2ccc(=O)c(O)c-2oc2c(O)c(O)ccc12` (centres unmarked) [compound 119910]: the IC50 amounted to 0.2 µM.

With `O=C(O)/C=C/c1c2ccc(=O)c(O)c-2oc2c(O)c(O)ccc12` [compound 119911], the IC50 was determined as 0.2 µM.

Regarding `CC1C2C=CC1C(c1c3ccc(=O)c(O)c-3oc3c(O)c(O)ccc13)C2C(=O)O` (centres unmarked) [compound 119913], the IC50 turned out to be 0.7 µM.

Take `N=C(N)SCCN1CCCCC1` [compound 121771]: the IC50 was 198 µM.

Regarding `Nc1ccc(-c2ccc(Nc3cc(S(=O)(=O)O)c(N)c4c3C(=O)c3ccccc3C4=O)cc2)c(S(=O)(=O)O)c1` [compound 125910], the IC50 was 18 µM.

On to `O=C1c2ccccc2C(=O)c2c(NC3CCCCC3)ccc(Nc3ccc(S(=O)(=O)O)cc3)c21` [compound 128437], for which the IC50 was found to be 24 µM.

In the case of `O=C(c1ccc([N+](=O)[O-])cc1)C(Br)C(Br)c1ccnc2ccccc12` (centres unmarked) [compound 150289], the IC50 worked out at 42.5 µM.

The target of a further assay is T1, Gβ1γ2.
Experiment: not given
The settings on record: surface plasmon resonance; cited from earlier work.
In the case of `O=C1OC2(c3ccccc31)c1ccc(O)c(O)c1Oc1c2ccc(O)c1O` [gallein], the Kd was ~400 nM.

The test system of another assay is phosphoinositide 3-kinase γ (PI3K).
Experiment: not given
The following applies: cited from earlier work.
Turning to `O=C(O)C1CCCCC1c1c2ccc(=O)c(O)c-2oc2c(O)c(O)ccc12` (centres unmarked) [compound 119910], the “Gβγ-dependent activation of phosphoinositide 3-kinase γ (PI3K)” value is given as “inhibit”.

A further assay has as its system PI3K.
Experiment: not given
The settings on record: cited from earlier work.
For the compound `O=C1OC2(c3ccccc31)c1ccc(O)c(O)c1Oc1c2ccc(O)c1O` [gallein], the PI3K activation entry is given as “inhibit”.

The subject of a further assay is neutrophil.
Experiment: not given
The settings on record: cited from earlier work.
Consider `O=C1OC2(c3ccccc31)c1ccc(O)c(O)c1Oc1c2ccc(O)c1O` [gallein], for which the chemoattractant-dependent neutrophil migration entry was “inhibit”.

Test system in the next assay: not given
Experiment: not given
The following applies: mice; cited from earlier work.
On to `O=C1OC2(c3ccccc31)c1ccc(O)c(O)c1Oc1c2ccc(O)c1O` [gallein], for which the carrageenan-induced inflammation result is “lessen”.

Another assay relates to phospholipase C.
Experiment: not given
The following applies: cited from earlier work.
Take `O=C(O)C1CCCCC1c1c2ccc(=O)c(O)c-2oc2c(O)c(O)ccc12` (centres unmarked) [compound 119910]: the “Gβγ-dependent activation of phospholipase C” value is listed as “inhibit”.
